# Source: paper PMC6420499 (Scientific Reports, 2019)
# Tests used:
# recombinant CYP26A1 [1] = target: T1, recombinant CYP26A1 (Homo sapiens, UniProt O43174); test: Inhibition of recombinant CYP26A1 mediated 4-OH-RA formation; type: biochemical; conditions: talarozole 200 nM, atRA 500 nM, CYP26A1 2 pmol/mL, 2 min
# T1 construct: made in house; host or cells: baculovirus infected insect cells (membrane fractions)
# T1 sequence (O43174 1-497): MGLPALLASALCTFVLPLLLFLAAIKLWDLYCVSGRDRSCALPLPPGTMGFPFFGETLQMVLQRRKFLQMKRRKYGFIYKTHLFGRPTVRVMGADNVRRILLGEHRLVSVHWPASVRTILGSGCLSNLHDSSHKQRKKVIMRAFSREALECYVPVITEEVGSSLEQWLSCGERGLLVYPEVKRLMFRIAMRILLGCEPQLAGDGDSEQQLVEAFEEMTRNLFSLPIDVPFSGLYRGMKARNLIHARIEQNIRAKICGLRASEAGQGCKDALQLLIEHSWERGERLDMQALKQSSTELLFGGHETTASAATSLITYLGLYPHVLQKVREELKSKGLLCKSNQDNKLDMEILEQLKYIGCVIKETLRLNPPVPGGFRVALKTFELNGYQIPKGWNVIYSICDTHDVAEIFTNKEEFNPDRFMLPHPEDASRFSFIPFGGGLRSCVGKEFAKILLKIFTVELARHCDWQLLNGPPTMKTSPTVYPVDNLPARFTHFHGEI
# Protocol: (§1) Talarozole was chosen as the CYP26 inhibitor based on previous characterization of its potency towards CYP26A1 and CYP26B1[34]. Ketoconazole was included in the analysis as it is a well characterized pan-CYP inhibitor with high potency both towards CYP3A7 and CYP26s[16],[34]. […] All of the samples were extracted and analyzed by HPLC-MS/MS. […] Incubations were performed as described above for fetal livers and analyzed for metabolite formation by HPLC-MS/MS. The percent inhibition was calculated by comparing the metabolite formation velocity in the presence of the inhibitor to vehicle control.
# (§2) The aqueous phase contained 0.1 % formic acid throughout.
# recombinant CYP3A7 = target: T2, recombinant CYP3A7 (Homo sapiens, UniProt P24462); test: Inhibition of recombinant CYP3A7 mediated 4-OH-RA formation; type: biochemical; conditions: CYP3A7 5 pmol/mL, 10 min
# T2 construct: purchased BD Gentest
# Protocol: as §1, §2
# [2] = test system: CYP26 (atRA metabolite formation in fetal liver S9); test: Inhibition of atRA metabolite formation in human fetal liver S9 fractions by CYP selective inhibitors; type: in vitro ADME; conditions: human, human fetal liver S9 fractions, probe atRA (all-trans retinoic acid), 500 nM
# Protocol: as §1, §2
# [3] = Metabolite identification, atRA in representative human fetal liver S9 fractions; type: in vitro ADME; conditions: 5 µM atRA, 0.3 mg S9 protein in 1 mL, 10 min, two representative livers
# Protocol: (§3) The incubations were quenched with ethyl acetate, metabolites extracted as previously described[15] and the product formation was then measured by LC-MS/MS as described below. For fetal liver S9 incubations two representative livers were chosen based on the mRNA expression levels of CYP3A7 and CYP26A1. […] After a pre-incubation of 5 min the reactions were initiated with the addition of NADPH (1 mM final concentration) and allowed to proceed for 10 min.
# (§4) In brief, analytes were separated using a gradient elution as follows: starting from 10:90 acetonitrile: aqueous to 1:1 acetonitrile: aqueous over 0.5 min then increased to 85:15 acetonitrile: aqueous over 4 min and then after a 0.1 min hold increased to 95:5 acetonitrile: aqueous held for 2.5 min. The aqueous phase contained 0.1 % formic acid throughout. […] Retinoid concentrations were quantified using Analyst software and peak height ratios between the analyte and the internal standard (4-oxo-RA-d3).
# [4] = set-up: method as in PMID 20513361; conditions: value used for scaling; cited from earlier work
# [5] = In vitro to in vivo scaling of atRA metabolism, fetal liver extraction ratio (well-stirred model); type: in vitro ADME, human; conditions: at any gestational age
# [6] = atRA metabolite formation in human placental S9 preparations; type: in vitro ADME; conditions: preliminary studies, data not shown
# recombinant CYP26A1 [7] = target: T1, recombinant CYP26A1; test: Metabolite identification, atRA with recombinant CYP26A1; type: in vitro ADME; conditions: 5 µM atRA, 5 pmol CYP26A1, 2 min
# Protocol: as §3, §4
# recombinant CYP26B1 = target: T3, recombinant CYP26B1 (Homo sapiens, UniProt Q9NR63); test: Metabolite identification, atRA with recombinant CYP26B1; type: in vitro ADME; conditions: 5 µM atRA, 5 pmol CYP26B1, 10 min
# T3 construct: made in house; host or cells: baculovirus infected insect cells (membrane fractions)
# T3 sequence (Q9NR63 1-512): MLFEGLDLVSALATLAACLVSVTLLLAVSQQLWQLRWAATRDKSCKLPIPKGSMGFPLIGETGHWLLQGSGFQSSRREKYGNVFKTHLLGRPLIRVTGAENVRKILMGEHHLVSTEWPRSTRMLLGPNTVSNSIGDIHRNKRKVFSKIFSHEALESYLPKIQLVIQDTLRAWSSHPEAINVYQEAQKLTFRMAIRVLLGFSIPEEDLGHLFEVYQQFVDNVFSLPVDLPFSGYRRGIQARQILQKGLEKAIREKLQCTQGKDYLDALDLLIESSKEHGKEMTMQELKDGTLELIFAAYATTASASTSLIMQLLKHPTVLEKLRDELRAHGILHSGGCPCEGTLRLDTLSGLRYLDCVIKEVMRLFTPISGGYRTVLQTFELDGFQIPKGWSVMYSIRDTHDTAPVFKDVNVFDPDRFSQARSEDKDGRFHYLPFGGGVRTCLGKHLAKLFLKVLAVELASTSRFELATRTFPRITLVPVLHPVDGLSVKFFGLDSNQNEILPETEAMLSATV
# Source text: as §2
# CYP3A7 = test system: CYP3A7; set-up: method as in PMID 21521770; conditions: cited from earlier work
# CYP26 = test system: CYP26; set-up: method as in PMID 21521770; conditions: cited from earlier work
# [8] = test system: atRA metabolite formation in human fetal liver S9 fractions; test: Inhibition of atRA metabolite formation in human fetal liver S9 fractions by CYP selective inhibitors; type: in vitro ADME; conditions: ketoconazole 10 µM, atRA 500 nM, S9 fractions from four representative donors, vs vehicle control
# Protocol: as §1, §2
# [9] = test system: CYP3A7 (atRA metabolite formation in fetal liver S9); test: as above; type: in vitro ADME; conditions: human, human fetal liver S9 fractions, probe atRA (all-trans retinoic acid), 500 nM
# Protocol: as §1, §2
# T2 sequence (P24462 whole entry): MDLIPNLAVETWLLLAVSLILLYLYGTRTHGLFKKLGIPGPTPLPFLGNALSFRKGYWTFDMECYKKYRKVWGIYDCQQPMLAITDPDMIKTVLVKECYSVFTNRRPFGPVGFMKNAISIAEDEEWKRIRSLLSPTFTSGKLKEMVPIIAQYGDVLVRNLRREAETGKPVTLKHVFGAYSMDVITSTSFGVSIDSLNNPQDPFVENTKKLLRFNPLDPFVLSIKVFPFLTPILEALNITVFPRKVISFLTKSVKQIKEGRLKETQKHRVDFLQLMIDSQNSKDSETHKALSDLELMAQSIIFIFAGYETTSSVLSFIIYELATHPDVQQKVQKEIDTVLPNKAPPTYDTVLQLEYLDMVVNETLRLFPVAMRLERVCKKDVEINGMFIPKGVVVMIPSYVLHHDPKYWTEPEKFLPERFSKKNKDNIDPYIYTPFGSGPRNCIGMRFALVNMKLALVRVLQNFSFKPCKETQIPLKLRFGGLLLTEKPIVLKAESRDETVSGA
smiles,measurement,setting,value
CCC(CC)C(c1ccc(Nc2nc3ccccc3s2)cc1)n1cncn1 (stereo not drawn) [talarozole],inhibition of CYP26A1,recombinant CYP26A1 [1],reproduced
same,inhibition of CYP3A7 mediated 4-OH-RA formation,"recombinant CYP3A7; talarozole 200 nM, atRA 500 nM",did not significantly inhibit
same,inhibition at 200 nM,[2],30 to 40%
"CC1=C(/C=C/C(C)=C/C=C/C(C)=C/C(=O)O)C(C)(C)CCC1 [atRA, All-trans-retinoic acid]",atRA metabolites observed,[3],only the formation of 4-OH-RA and its metabolite 4-oxo-RA was observed
same,plasma unbound fraction (fu),[4],0.01
same,maternal atRA that could be extracted by fetal liver,[5],≤ 5%
same,formation of atRA metabolites,[6],did not observe any formation of atRA metabolites
same,atRA metabolites formed,recombinant CYP26A1 [7],hydroxylated atRA at multiple sites
same,atRA metabolites formed,recombinant CYP26B1,hydroxylated atRA at multiple sites
CC(=O)N1CCN(c2ccc(OCC3COC(Cn4ccnc4)(c4ccc(Cl)cc4Cl)O3)cc2)CC1 (stereo not drawn) [ketoconazole],inhibition of CYP3A7,CYP3A7,inhibits
same,inhibition of CYP26,CYP26,inhibits
same,decrease in atRA metabolite formation,[8],> 95%
OC(Cn1cncn1)(Cn1cncn1)c1ccc(F)cc1F [fluconazole],inhibition of CYP26,CYP26,not to inhibit
same,inhibition of CYP3A7 mediated 4-OH-atRA formation,"recombinant CYP3A7; fluconazole 300 μM, atRA 10 µM",confirmed
same,inhibition at 200 µM,[9],30 to 60%
